# Key:
# [1] = target: T1, protein-protein interaction between hSOS1 and hKRASG12C (Homo sapiens, UniProt Q07889); assay: KRAS-SOS1 interaction assay (HTRF); format: binding; details: GST-hSOS1 564-1049aa, HIS-hKRASG12C, read-out: KRAS-SOS1 Interaction inhibition IC50
# T1 construct: GST-hSOS1, 564-1049aa expressed and purified in-house
# T1 sequence (Q07889 564-1049): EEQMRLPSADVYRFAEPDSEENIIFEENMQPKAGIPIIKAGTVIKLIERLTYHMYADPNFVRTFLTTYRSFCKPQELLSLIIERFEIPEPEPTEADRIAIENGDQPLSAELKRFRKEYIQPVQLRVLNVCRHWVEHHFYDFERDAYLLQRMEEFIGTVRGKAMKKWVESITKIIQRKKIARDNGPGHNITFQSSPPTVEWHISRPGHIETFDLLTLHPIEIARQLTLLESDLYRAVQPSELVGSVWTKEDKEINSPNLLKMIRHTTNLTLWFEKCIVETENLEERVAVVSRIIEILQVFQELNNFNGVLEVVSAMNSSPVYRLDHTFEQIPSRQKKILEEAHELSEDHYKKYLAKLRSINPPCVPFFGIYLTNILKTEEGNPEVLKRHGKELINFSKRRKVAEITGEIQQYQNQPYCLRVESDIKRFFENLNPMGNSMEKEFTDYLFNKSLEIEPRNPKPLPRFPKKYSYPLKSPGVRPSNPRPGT
# How it was run: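 GST-hSOS1 (564-1049aa) at 10-50 nM working solution pre-incubated with compounds 10 min at 20° C in HEPES pH 7.4 buffer with EDTA, DTT, BSA and Igepal. HIS-hKRASG12C (100-300 nM working solution) added for 30-60 min, then anti-GST-d2/anti-HIS-Tb detection; percent inhibition from the 665/620 nm ratio.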
# [2] = target: T2, nucleotide exchange on hKRASG12C mediated by hSOS1 (Homo sapiens, UniProt Q07889); assay: Guanine nucleotide exchange assay (GNEA, HTRF); format: biochemical; details: HIS-hSOS1 564-1049aa mediated GTP loading onto GST-hKRASG12C 1-169aa, read-out: Guanine nucleotide exchange inhibition IC50
# T2 construct: HIS-hSOS1, 564-1049aa mediated GTP loading onto GST-hKRASG12C; His (N); made in house
# T2 sequence (Q07889 564-1049): T1 sequence (Q07889 564-1049)
# How it was run: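 Compounds were pre-incubated 10 min at 20 °C with HIS-hSOS1 (564-1049aa) and EDA-GTP-DY-647P1 (working solution 10-50 nM and 200 nM) in pH 7.4 HEPES with NaCl, MgCl2, DTT, BSA and Igepal. GST-hKRASG12C (1-169aa, 25-125 nM working solution) plus anti-GST-Tb was added for 30-60 min at 20 °C. Percent inhibition came from the HTRF 665/620 nm ratio.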
# [3] = system: pERK after EGF stimulation in DLD1 cells; assay: ERK phosphorylation assay (alphascreen pERK); format: cell-based; details: Homo sapiens, DLD-1, 2 h compound, 200 ng/ml hEGF for 5 minutes, read-out: ERK phosphorylation inhibition IC50
# How it was run: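 DLD1 cells pretreated with test compounds for 2 h, then stimulated with 200 ng/ml hEGF for 5 min. Lysates assayed by AlphaScreen SureFire for ERK1/2 p-T202/Y204, read after 2 h at 25–28 °C. % inhibition relative to the stimulated-minus-unstimulated vehicle window.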
structure (smiles),measurement,setting,value
"Cc1nc(N[C@H](C)c2cccc(C(F)(F)C(C)(C)O)c2F)c2cc3c(cc2n1)OC(C)(C)CN3C [Compound 34, (R)-1,1-Difluoro-1-(2-fluoro-3-(1-((2,6,8,8-tetramethyl-7,8-dihydro-6H-[1,4]oxazino [3,2-g]quinazolin-4-yl)amino)ethyl)phenyl)-2-methylpropan-2-ol]",IC50,[1],1 to 10 nM
same,IC50,[2],31 to 130 nM
same,IC50,[3],1 to 200 nM
"Cc1nc(N[C@H](C)c2cccc(C(F)(F)CO)c2F)c2cc3c(cc2n1)OC(C)(C)CN3C [Compound 35, (R)-2,2-Difluoro-2-(2-fluoro-3-(1-((2,6,8,8-tetramethyl-7,8-dihydro-6H-[1,4]oxazino[3,2-g]quinazolin-4-yl)amino)ethyl)phenyl)ethan-1-ol]",IC50,[1],1 to 10 nM
same,IC50,[2],1 to 30 nM
same,IC50,[3],1 to 200 nM
"Cc1nc(N[C@H](C)c2cccc(C(F)(F)C(C)(C)O)c2F)c2cc3c(cc2n1)OCC(C)(C)N3C [Compound 37, (R)-1,1-Difluoro-1-(2-fluoro-3-(1-((2,6,7,7-tetramethyl-7,8-dihydro-6H-[1,4]oxazino[3,2-g]quinazolin-4-yl)amino)ethyl)phenyl)-2-methylpropan-2-ol]",IC50,[1],1 to 10 nM
same,IC50,[2],1 to 30 nM
same,IC50,[3],1 to 200 nM
"Cc1nc(N[C@H](C)c2cccc(C(F)(F)C(C)(C)O)c2F)c2cc3c(cc(C)c(=O)n3C)cc2n1 [Compound 38, (R)-4-((1-(3-(1,1-Difluoro-2-hydroxy-2-methylpropyl)-2-fluorophenyl)ethyl)amino)-2,6,8-trimethylpyrido[2,3-g]quinazolin-7(6H)-one]",IC50,[1],1 to 10 nM
same,IC50,[2],1 to 30 nM
same,IC50,[3],1 to 200 nM
"Cc1nc(N[C@H](C)c2cccc(C(F)(F)C(C)(C)O)c2F)c2cc3c(cc2n1)nc(C)c(=O)n3C [Compound 39, (R)-4-((1-(3-(1,1-Difluoro-2-hydroxy-2-methylpropyl)-2-fluorophenyl)ethyl)amino)-2,6,8-trimethylpyrazino[2,3-g]quinazolin-7(6H)-one]",IC50,[1],1 to 10 nM
same,IC50,[2],1 to 30 nM
same,IC50,[3],1 to 200 nM
"Cc1nc(N[C@H](C)c2cccc(C(F)(F)C(C)(C)O)c2F)c2cc3c(cc2n1)C(C)(C)CC(=O)N3C [Compound 42, (R)-4-((1-(3-(1,1-difluoro-2-hydroxy-2-methylpropyl)-2-fluorophenyl)ethyl)amino)-2,6,9,9-tetramethyl-8,9-dihydropyrido[2,3-g]quinazolin-7(6H)-one]",IC50,[1],1 to 10 nM
same,IC50,[2],1 to 30 nM
same,IC50,[3],1 to 200 nM
"Cc1nc(N[C@H](C)c2cccc(C(F)(F)C(C)(C)O)c2F)c2cc3c(cc2n1)OCCN3C [Compound 45, (R)-1-(3-(1-((2,6-dimethyl-7,8-dihydro-6H-[1,4]oxazino[3,2-g]quinazolin-4-yl)amino)ethyl)-2-fluorophenyl)-1,1-difluoro-2-methylpropan-2-ol]",IC50,[1],1 to 10 nM
same,IC50,[2],31 to 130 nM
same,IC50,[3],1 to 200 nM
"Cc1nc(N[C@H](C)c2cccc(C(F)(F)C(C)(C)O)c2F)c2cc3c(c(F)c2n1)OCC(=O)N3C [Compound 47, (R)-4-((1-(3-(1,1-difluoro-2-hydroxy-2-methylpropyl)-2-fluorophenyl)ethyl)amino)-10-fluoro-2,6-dimethyl-6H-[1,4]oxazino[3,2-g]quinazolin-7(8H)-one]",IC50,[1],11 to 25 nM
same,IC50,[2],31 to 130 nM
same,IC50,[3],1 to 200 nM
"Cc1nc(N[C@H](C)c2cccc(C(F)(F)C(C)(O)CF)c2F)c2cc3c(cc2n1)OC(C)(C)C(=O)N3C (stereo partly drawn) [Compound 54, (R&S)-4-(((1R)-1-(2-fluoro-3-(1,1,3-trifluoro-2-hydroxy-2-methylpropyl)phenyl)ethyl)amino)-2,6,8,8-tetramethyl-6H-[1,4]oxazino[3,2-g]quinazolin-7(8H)-one]",IC50,[1],1 to 10 nM
same,IC50,[2],1 to 30 nM
same,IC50,[3],1 to 200 nM
"CNCC(C)(O)C(F)(F)c1cccc([C@@H](C)Nc2nc(C)nc3cc4c(cc23)N(C)C(=O)C(C)(C)O4)c1F (stereo partly drawn) [Compound 55, (R&S)-4-(((1R)-1-(3-(1,1-difluoro-2-hydroxy-2-methyl-3-(methylamino)propyl)-2-fluorophenyl)ethyl)amino)-2,6,8,8-tetramethyl-6H-[1,4]oxazino[3,2-g]quinazolin-7(8H)-one]",IC50,[1],1 to 10 nM
same,IC50,[2],1 to 30 nM
same,IC50,[3],1 to 200 nM
"Cc1nc(N[C@H](C)c2cccc(C(F)(F)C(C)(C)O)c2F)c2cc3c(cc2n1)N(C)C(=O)C31CCCC1 [Compound 58, (R)-4′-((1-(3-(1,1-difluoro-2-hydroxy-2-methylpropyl)-2-fluorophenyl)ethyl)amino)-2′,8′-dimethylspiro[cyclopentane-1,6′-pyrrolo[3,2-g]quinazolin]-7′(8′H)-one]",IC50,[1],1 to 10 nM
same,IC50,[2],1 to 30 nM
same,IC50,[3],1 to 200 nM
"Cc1nc(N[C@H](C)c2cccc(C(F)(F)CO)c2F)c2cc3c(cc2n1)N(C)C(=O)C31CCCC1 [Compound 62, (R)-4′-((1-(3-(1,1-difluoro-2-hydroxyethyl)-2-fluorophenyl)ethyl)amino)-2′,8′-dimethylspiro[cyclopentane-1,6′-pyrrolo[3,2-g]quinazolin]-7′(8′H)-one]",IC50,[1],1 to 10 nM
same,IC50,[2],1 to 30 nM
same,IC50,[3],1 to 200 nM
"COCCN1C(=O)C(C)(C)c2cc3nc(C)nc(N[C@H](C)c4cccc(C(F)(F)C(C)(C)O)c4F)c3cc21 [Compound 63, (R)-4-((1-(3-(1,1-difluoro-2-hydroxy-2-methylpropyl)-2-fluorophenyl)ethyl)amino)-6-(2-methoxyethyl)-2,8,8-trimethyl-6,8-dihydro-7H-pyrrolo[2,3-g]quinazolin-7-one]",IC50,[1],1 to 10 nM
same,IC50,[2],1 to 30 nM
same,IC50,[3],1 to 200 nM
"CCN1C(=O)C(C)(C)c2cc3nc(C)nc(N[C@H](C)c4cccc(C(F)(F)C(C)(C)O)c4F)c3cc21 [Compound 64, (R)-4-((1-(3-(1,1-difluoro-2-hydroxy-2-methylpropyl)-2-fluorophenyl)ethyl)amino)-6-ethyl-2,8,8-trimethyl-6,8-dihydro-7H-pyrrolo[2,3-g]quinazolin-7-one]",IC50,[1],1 to 10 nM
same,IC50,[2],1 to 30 nM
same,IC50,[3],1 to 200 nM
"Cc1nc(N[C@H](C)c2cccc(C(F)(F)CO)c2F)c2cc3c(cc2n1)N(C)C(=O)C31CC1 [Compound 66, (R)-4′-((1-(3-(1,1-difluoro-2-hydroxyethyl)-2-fluorophenyl)ethyl)amino)-2′,8′-dimethylspiro [cyclopropane-1,6′-pyrrolo[3,2-g]quinazolin]-7′(8′H)-one]",IC50,[1],1 to 10 nM
same,IC50,[2],1 to 30 nM
same,IC50,[3],1 to 200 nM
"Cc1nc(N[C@H](C)c2cc(N)cc(C(F)(F)F)c2)c2cc3c(cc2n1)C(C)(C)C(=O)N3C [Compound 70, (R)-4-((1-(3-amino-5-(trifluoromethyl)phenyl)ethyl)amino)-2,6,8,8-tetramethyl-6H-pyrrolo[2,3-g]quinazolin-7(8H)-one]",IC50,[1],1 to 10 nM
same,IC50,[2],31 to 130 nM
same,IC50,[3],1 to 200 nM
"Cc1nc(N[C@H](C)c2cccc(C(F)(F)C(C)(C)O)c2F)c2cc3c(cc2n1)C(C)(C)CN3C [Compound 75, (R)-1,1-difluoro-1-(2-fluoro-3-(1-((2,6,8,8-tetramethyl-7,8-dihydro-6H-pyrrolo[2,3-g]quinazolin-4-yl)amino)ethyl)phenyl)-2-methylpropan-2-ol]",IC50,[1],11 to 25 nM
same,IC50,[2],31 to 130 nM
same,IC50,[3],1 to 200 nM
"Cc1nc(N[C@H](C)c2cccc(C(F)(F)CO)c2F)c2cc3c(cc2n1)N(C)C(=O)C3(C)C [Compound 80, (R)-4-((1-(3-(1,1-difluoro-2-hydroxyethyl)-2-fluorophenyl)ethyl)amino)-2,6,6,8-tetramethyl-6,8-dihydro-7H-pyrrolo[3,2-g]quinazolin-7-one]",IC50,[1],1 to 10 nM
same,IC50,[2],1 to 30 nM
same,IC50,[3],1 to 200 nM
"CCc1nc(N[C@H](C)c2cccc(C(F)(F)C(C)(C)O)c2F)c2cc3c(cc2n1)N(C)C(=O)C3(C)C [Compound 86, (R)-4-((1-(3-(1,1-difluoro-2-hydroxy-2-methylpropyl)-2-fluorophenyl)ethyl)amino)-2-ethyl-6,6,8-trimethyl-6,8-dihydro-7H-pyrrolo[3,2-g]quinazolin-7-one]",IC50,[1],1 to 10 nM
same,IC50,[2],31 to 130 nM
same,IC50,[3],1 to 200 nM

# Reference: US20260209247A1, “Substituted Tricyclic Compounds” (Lupin Limited, priority 2019, published 2026)
